In patent US12435059B2, “AMP-activated protein kinase inhibitors and methods of making and using the same” (The Regents of the University of Colorado, priority 2019, dated 2025):
Read-outs that look alike come from different tables or passages of the source.

Experiments:
Experiment in all cases: biochemical
Format in all cases: binding
468 kinases [1] = target: 468 kinases (Homo sapiens, UniProt O76039); settings: CDKL5; read-out: % Inhibition @ 100 nM
468 kinases [2] = target: 468 kinases (Homo sapiens, UniProt P00519, F317I); settings: read-out: % Inhibition @ 100 nM
468 kinases [3] = target: 468 kinases (Homo sapiens, UniProt P00533, T790M); settings: EGFR(T790M); read-out: % Inhibition @ 100 nM
468 kinases [4] = target: 468 kinases (Homo sapiens, UniProt P06239); settings: LCK; read-out: % Inhibition @ 100 nM
468 kinases [5] = target: 468 kinases (Homo sapiens, UniProt P06241); settings: FYN; read-out: % Inhibition @ 100 nM
468 kinases [6] = target: 468 kinases (Homo sapiens, UniProt P29317); settings: EPHA2; read-out: % Inhibition @ 100 nM
468 kinases [7] = target: 468 kinases (Homo sapiens, UniProt P29322); settings: EPHA8; read-out: % Inhibition @ 100 nM
468 kinases [8] = target: 468 kinases (Homo sapiens, UniProt P36888, D835H); settings: FLT3(D835H); read-out: % Inhibition @ 100 nM
468 kinases [9] = target: 468 kinases (Homo sapiens, UniProt P37173); settings: TGFBR2; read-out: % Inhibition @ 100 nM
468 kinases [10] = target: 468 kinases (Homo sapiens, UniProt P49760); settings: CLK2; read-out: % Inhibition @ 100 nM
468 kinases [11] = target: 468 kinases (Homo sapiens, UniProt P54760); settings: EPHB4; read-out: % Inhibition @ 100 nM
468 kinases [12] = target: 468 kinases (Homo sapiens, UniProt P78356); settings: PIP5K2B; read-out: % Inhibition @ 100 nM
468 kinases [13] = target: 468 kinases (Homo sapiens, UniProt P78362); settings: SRPK2; read-out: % Inhibition @ 100 nM
468 kinases [14] = target: 468 kinases (Homo sapiens, UniProt P80192); settings: MLK1; read-out: % Inhibition @ 100 nM
468 kinases [15] = target: 468 kinases (Homo sapiens, UniProt Q00536); settings: PCTK1; read-out: % Inhibition @ 100 nM
468 kinases [16] = target: 468 kinases (Homo sapiens, UniProt Q04771); settings: ACVR1; read-out: % Inhibition @ 100 nM
468 kinases [17] = target: 468 kinases (Homo sapiens, UniProt Q08881); settings: ITK; read-out: % Inhibition @ 100 nM
468 kinases [18] = target: 468 kinases (Homo sapiens, UniProt Q12852); settings: DLK; read-out: % Inhibition @ 100 nM
468 kinases [19] = target: 468 kinases (Homo sapiens, UniProt Q12866); settings: MERTK; read-out: % Inhibition @ 100 nM
468 kinases [20] = target: 468 kinases (Homo sapiens, UniProt Q13153); settings: PAK1; read-out: % Inhibition @ 100 nM
468 kinases [21] = target: 468 kinases (Homo sapiens, UniProt Q15349); settings: read-out: % Inhibition @ 100 nM
468 kinases [22] = target: 468 kinases (Homo sapiens, UniProt Q15759); settings: p38-beta; read-out: % Inhibition @ 100 nM
468 kinases [23] = target: 468 kinases (Homo sapiens, UniProt Q16620); settings: TRKB; read-out: % Inhibition @ 100 nM
468 kinases [24] = target: 468 kinases (Homo sapiens, UniProt Q6PHR2); settings: ULK3; read-out: % Inhibition @ 100 nM
468 kinases [25] = target: 468 kinases (Homo sapiens, UniProt Q8NEV4); settings: MYO3A; read-out: % Inhibition @ 100 nM
468 kinases [26] = target: 468 kinases (Homo sapiens, UniProt Q8WXR4); settings: MYO3B; read-out: % Inhibition @ 100 nM
468 kinases [27] = target: 468 kinases (Homo sapiens, UniProt Q96PY6); settings: NEK1; read-out: % Inhibition @ 100 nM
468 kinases [28] = target: 468 kinases (Homo sapiens, UniProt Q9BVS4); settings: RIOK2; read-out: % Inhibition @ 100 nM
468 kinases [29] = target: 468 kinases (Homo sapiens, UniProt Q9H3Y6); settings: SRMS; read-out: % Inhibition @ 100 nM
468 kinases [30] = target: 468 kinases (Homo sapiens, UniProt Q9UKI8); settings: TLK1; read-out: % Inhibition @ 100 nM
468 kinases [31] = target: 468 kinases (Homo sapiens, UniProt Q9UQB9); settings: AURKC; read-out: % Inhibition @ 100 nM
468 kinases [32] = target: 468 kinases (Homo sapiens, UniProt Q9Y243); settings: AKT3; read-out: % Inhibition @ 100 nM
468 kinases [33] = target: 468 kinases (Homo sapiens, UniProt Q9Y616); settings: IRAK3; read-out: % Inhibition @ 100 nM

Structure (SMILES) | inhibition at 0.1 µM (468 kinases [1]) [%] | inhibition at 0.1 µM (468 kinases [2]; ABL1 (F317I)-phosphorylated) [%] | inhibition at 0.1 µM (468 kinases [3]) [%] | inhibition at 0.1 µM (468 kinases [4]) [%] | inhibition at 0.1 µM (468 kinases [5]) [%] | inhibition at 0.1 µM (468 kinases [6]) [%] | inhibition at 0.1 µM (468 kinases [7]) [%] | inhibition at 0.1 µM (468 kinases [8]) [%] | inhibition at 0.1 µM (468 kinases [9]) [%] | inhibition at 0.1 µM (468 kinases [10]) [%] | inhibition at 0.1 µM (468 kinases [11]) [%] | inhibition at 0.1 µM (468 kinases [12]) [%] | inhibition at 0.1 µM (468 kinases [13]) [%] | inhibition at 0.1 µM (468 kinases [14]) [%] | inhibition at 0.1 µM (468 kinases [15]) [%] | inhibition at 0.1 µM (468 kinases [16]) [%] | inhibition at 0.1 µM (468 kinases [17]) [%] | inhibition at 0.1 µM (468 kinases [18]) [%] | inhibition at 0.1 µM (468 kinases [19]) [%] | inhibition at 0.1 µM (468 kinases [20]) [%] | also measured
CCN(CC)CCNC(=O)c1c(C)[nH]c(/C=C2\C(=O)Nc3ccc(CCC(N)=O)cc32)c1C [Compound No. 16, (Z)-5-((5-(3-Amino-3-oxopropyl)-2-oxoindolin-3-ylidene)methyl)-N-(2-(diethylamino)ethyl)-2,4-dimethyl-1H-pyrrole-3-carboxamide] | 5 | 31 | 30 | 16 | 95 | 0 | 0 | 92.9 | 0 | 100 | 0 | 86 | 51 | 5 | 19 | 18 | 12 | 100 | 68 | 0 | inhibition at 0.1 µM (468 kinases [21]; RSK3(Kin.Dom.1-N-terminal)): 7%; inhibition at 0.1 µM (468 kinases [21]; RSK3(Kin.Dom.2-C-terminal)): 19%; inhibition at 0.1 µM (468 kinases [22]): 0%; inhibition at 0.1 µM (468 kinases [23]): 83%; inhibition at 0.1 µM (468 kinases [24]): 25%; inhibition at 0.1 µM (468 kinases [25]): 1%; inhibition at 0.1 µM (468 kinases [26]): 0%; inhibition at 0.1 µM (468 kinases [27]): 77%; inhibition at 0.1 µM (468 kinases [28]): 38%; inhibition at 0.1 µM (468 kinases [29]): 27%; inhibition at 0.1 µM (468 kinases [30]): 0%; inhibition at 0.1 µM (468 kinases [31]): 98.4%; inhibition at 0.1 µM (468 kinases [32]): 17%; inhibition at 0.1 µM (468 kinases [33]): 100%
CCN(CC)CCNC(=O)c1c(C)[nH]c(/C=C2\C(=O)Nc3ccc(CCO)cc32)c1C [Compound No. 10, (Z)—N-(2-(Diethylamino)ethyl)-5-((5-(2-hydroxyethyl)-2-oxoindolin-3-ylidene)methyl)-2,4-dimethyl-1H-pyrrole-3-carboxamide] | 0 | 0 | 0 | 37 | 0 | 2 | 0 | 91.7 | 0 | 93.8 | 3 | 91.7 | 66 | 1 | 0 | 0 | 12 | 86 | 71 | 0 | inhibition at 0.1 µM (468 kinases [2]; ABL1 (F317I)-nonphosphorylated): 8%; inhibition at 0.1 µM (468 kinases [21]; RSK3(Kin.Dom.1-N-terminal)): 13%; inhibition at 0.1 µM (468 kinases [21]; RSK3(Kin.Dom.2-C-terminal)): 0%; inhibition at 0.1 µM (468 kinases [22]): 80%; inhibition at 0.1 µM (468 kinases [23]): 61%; inhibition at 0.1 µM (468 kinases [24]): 87%; inhibition at 0.1 µM (468 kinases [25]): 0%; inhibition at 0.1 µM (468 kinases [26]): 0%; inhibition at 0.1 µM (468 kinases [27]): 9%; inhibition at 0.1 µM (468 kinases [28]): 0%; inhibition at 0.1 µM (468 kinases [29]): 13%; inhibition at 0.1 µM (468 kinases [30]): 2%; inhibition at 0.1 µM (468 kinases [31]): 40%; inhibition at 0.1 µM (468 kinases [32]): 47%; inhibition at 0.1 µM (468 kinases [33]): 0%
